Results reported in the NIST ThermoML archive (doi:10.1021/je0604380).
± gives the expanded uncertainty stated by the source.

Conditions: Liquid; for Critical pressure: pulse heating; for Critical temperature: pulse-heating method

Row | SMILES | Critical pressure | Critical temperature
1 | OCCc1ccccc1 [2-phenylethanol] | 3850 ± 240 kPa | 720 ± 14 K
2 | OCCCc1ccccc1 [3-phenyl-1-propanol] | 3460 ± 200 kPa | 732 ± 14 K
3 | OCCCCc1ccccc1 [4-phenyl-1-butanol] | 3070 ± 180 kPa | 746 ± 14 K
4 | Oc1ccccc1 [phenol] | 5670 ± 340 kPa | 695 ± 14 K
